Structures are written as SMILES. “Also recorded” adds a separate entry of the source. Read-outs that look alike come from different tables or passages of the source.

Experiment [1] has as its system Caspase 3 activity in kill switch-transduced HEK293 cells. The experiment in a line: Kill switch Caspase 3 functional assay. To be noted: relative to non-transduced cells. Type of experiment: cell-based, human. The protocol:
Lentiviral particles encoding the kill switch fusion protein (SEQ ID NO: 223) or kill switch S196A mutant fusion protein (SEQ ID NO: 230) were generated using pPACKH1 HIV lentiviral packaging kit (Systems Bioscience), according to manufacturer's instructions. HEK293 cells were transduced for 24 h in the presence of 8 μg/ml polybrene after which cells were changed into fresh growth medium (DMEM+10% foetal bovine serum+1% Non-essential amino acids). 24 h later transduced cells were selected by addition of 2 μg/ml puromycin for 5 days. Before functional testing, transduced cell pools were FACS sorted based on GFP fluorescence to isolate high expressing cell line pools and single cell clones.
Functional Caspase 9 activates Caspase 3, and this proteolytic activity can be determined using cleavage of non-fluorescent substrate DEVD-AMC into cleavage products DEVD and fluorescent AMC, such that AMC fluorescence signal at 430 nm is proportional to Caspase 3 activity. For the Caspase 3 assay, cells were plated in duplicate onto 6 well tissue-culture treated plates. […] Cells lysates were analysed in triplicate using a Caspase 3 assay from BD Biosciences according to manufacturer's instruction with the modification that total protein input was normalised to 50 μg by BCA assay (LifeTechnologies). Fluorescence was determined on an Envision plate reader (PerkinElmer), Ex: 380 nm, Em: 430 nm. […]

Experiment [2] deals with HCV NS3/4A PR D168E/PRSIM_23 (Hepatitis C virus subtype 1a, UniProt A8DG50, D1194E/S1165A, form not given). Put plainly: Biacore 8K simeprevir titration of heterodimerisation. Type of experiment: binding. To be noted: read-out: EC50 of simeprevir for induction of heterodimerisation; D168E protease, immobilised PRSIM_23. The method, then: (§1) The effect of simeprevir concentration on the formation of the HCV NS3/4A PR (S139A)/PRSIM binding molecule complex was also measured using the Biacore 8K. PRSIM_57 and PRSIM_23 were covalently immobilised on a CM5 chip surface, as before. Simeprevir was diluted 1:2 (0.0152-300 nM) in 10 mM Hepes pH 7.4, 150 mM NaCl, 0.05% Surfactant P20, 0.3% DMSO at a constant 40 nM HCV NS3/4A PR (S139A) concentration. The samples were flowed over the chip at 50 μl/min using multi cycle kinetics, with 240 sec association and 600 sec dissociation. Regeneration conditions were as described above. Titration curves for the induction of HCV NS3/4A PR (S139A)/PRSIM dimerization by simeprevir were generated. The response for each simeprevir concentration at 225 sec (15 sec before the end of the association) was normalized as a percentage of the response for 300 nM Simeprevir at 225 sec and plotted against the Simeprevir concentration. Each data point represents the mean of 3 independent experiments±s.e.m. The EC50 reported was calculated using nonlinear regression curve fit. The same method was used for the mutant HCV NS3/4A proteases, except simeprevir was diluted 1:2 (0.0457-900 or 0.412-8,100 nM) in 10 mM Hepes pH 7.4, 150 mM NaCl, 0.05% Surfactant P20, 0.82% DMSO at a constant 40 nM HCV NS3/4A PR (S139A) concentration and the response for each simeprevir concentration was normalized against the highest simeprevir concentration.
For orientation: Surface plasmon resonance follows binding to a sensor surface in real time, without labels.

The target of experiment [3] is HCV NS3/4A PR K136D/PRSIM_23 (Hepatitis C virus subtype 1a, UniProt A8DG50, K1162D/S1165A, form not given). The description is as above. Format: binding. The method, then: as §1
Experiment [4] deals with HCV NS3/4A PR K136N/PRSIM_23 (Hepatitis C virus subtype 1a, UniProt A8DG50, A1066T/I1043Q/I1044E/K1162N/L1039E/L1040E/L1047Q/S1165A, form not given). Described as above. The conditions noted are these: read-out: EC50 of simeprevir for induction of heterodimerisation; K136N protease, immobilised PRSIM_23. Type of experiment: binding. The method, then: as §1
Experiment [5] deals with HCV NS3/4A PR (S139A)/PRSIM_57 (Hepatitis C virus subtype 1a, UniProt A8DG50, A1066T/I1043Q/I1044E/L1039E/L1040E/L1047Q/S1165A, form not given). Described as above. Format: binding. The conditions noted are these: read-out: EC50 of simeprevir for induction of heterodimerisation; 40 nM HCV NS3/4A PR (S139A), immobilised PRSIM_57. The protocol: as §1
Experiment [6] concerns the target HCV NS3/4A PR (S139A)/PRSIM_23 (Hepatitis C virus subtype 1a, UniProt A8DG50, A1066T/I1043Q/I1044E/L1039E/L1040E/L1047Q/S1165A, form not given). The description is as above. Format: binding. The conditions noted are these: read-out: EC50 of simeprevir for induction of heterodimerisation, 40 nM ‘WT’ (S139A) protease, immobilised PRSIM_23. The protocol:
as §1

For orientation: EC50 means the concentration giving half of the maximal effect. Turning to `COc1ccc2c(O[C@@H]3C[C@H]4C(=O)N[C@]5(C(=O)NS(=O)(=O)C6CC6)C[C@H]5/C=C\CCCCN(C)C(=O)[C@@H]4C3)cc(-c3nc(C(C)C)cs3)nc2c1C` [simeprevir], the “Caspase 3 activity” value in experiment [1] (10 nM simeprevir 3 h, wt kill switch) was “significantly (p<0.0001) up-regulated; also recorded: significantly (p<0.0005) upregulated”; in experiment [1] (10 nM simeprevir, S196A mutant kill switch), “significantly (p<0.0005) upregulated”. Further, the concentration giving a half-maximal response (EC50) in experiment [2] worked out at 3.69 nM; in experiment [3] (read-out: EC50 of simeprevir for induction of heterodimerisation, K136D protease, immobilised PRSIM_23), 132 nM; in experiment [4], 8.06 nM; in experiment [5] it was 4.57 nM; in experiment [6], 4.53 nM; in experiment [6] (listed as Simeprevir) it was 4.03 nM. For the same compound, the “EC50 higher than for the wt complex” value in experiment [3] (K136D versus wt complex) is approximately 30 fold.

These data come from patent US20220380801A1, “TRIPARTITE SYSTEMS FOR PROTEIN DIMERIZATION AND METHODS OF USE” (priority 2019, published 2022).
